{"source": "patent US20180064965A1", "about": "“PEPTIDE FOR PROMOTING HAIR GROWTH” (H&H GROUP CO., LTD., priority 2016, published 2018)", "key": {"nude mice": {"tested_on": "nude mice", "assay": "Hair patch assay for nude mice", "format": "in vivo", "settings": "subcutaneous injection of epidermal and dermal cells with 50 μg/ml peptide, 30 days", "protocol": "Skin was peeled off from 1 day-old C57BL/6 mouse and its epidermis was separated from the dermis by 10 mg/ml Dispase digestion at 4° C. for 2 days. Epidermis and dermis were cut into small pieces and digested at 37° C. in 0.05% Trypsin-EDTA for 15 minutes and then 20 mg/ml collagenase for 60 minutes. Epidermal cells and dermal cells were collected through filtration with 70 μm strainers and low-speed centrifugation.\n2×10^7 epidermal cells and 1×10^8 dermal cells were subcutaneously injected into nude mice with ddH2O or Mucinhair peptide (50 μg/ml). After 30 days, mice were sacrificed and hair patch was excised and photographed. The excised skins were paraffin-embedded and tissues were sectioned and stained with hemmtoxylin and eosin (H&E)."}, "dermal papilla cells": {"tested_on": "dermal papilla cells", "assay": "Cell proliferation assay (MTT)", "format": "cell-based", "settings": "rat dermal papilla cells, 50 μg/ml, quotient of MTT value vs 0 hour", "protocol": "Dermal papilla cells were isolated from rat whiskers and cells were cultured in Dulbecco's modified Eagle's medium (Thermo Scientific, Barrington, Ill., USA) with 10% fetal bovine serum (Gibco, Grand Island, N.Y., USA) and penicillin/streptomycin (100 IU/[…]) in a humidified atmosphere containing 5% CO2 at 37° C. Dermal papilla cells at the 3rd passage were used for all of the following experiments.\n2×10^3 dermal papilla cells were seeded in 96-well plates and incubated with Mucinhair peptide (50 μg/ml) or ddH2O for the indicated period. 10 μL of 5 mg/mL 3-(4,5-dimethyl-2-thiazolyl)-2,5-diphenyl-2H-tetrazolium bromide solution (MTT; Sigma) was added to each well and incubated at 37° C. for 4 hours. After which, 100 μL of 10% SDS in 0.01N HCl was added to dissolve the MTT formazan crystals. The resultant optical density was measured spectrophotometrically at dual wavelengths, 550 and 630 nm. The MTT value was obtained by subtracting the OD630 value from the OD550 value.\nThe term “proliferation rate” used herein is defined as a quotient of the MTT value calculated from cells treated for an indicated period and that calculated from cells treated for 0 hour."}, "Hair follicles": {"tested_on": "Hair follicles", "assay": "Hair follicle culture", "format": "cell-based", "settings": "rat whisker hair follicles, 50 μg/ml, 20th day after treatment, vs ddH2O", "protocol": "Hair follicles were isolated from 4 week-old rat whiskers and were maintained in Dulbecco's Modified Eagle Medium supplemented with 10% fetal bovine serum, 1% (v/v) antibiotic, and 250 ng/ml fungizone in 5% CO2 at 37° C. for 24 hours. Then, the hair follicles were treated with ddH2O or Mucinhair peptide (50 μg/ml). Medium was changed every 6 days and the hair shaft lengths were measured under a phase contrast microscope on the 20th day after the treatment."}}, "data": [{"sequence": "NTSDPQKENRNTG [Mucinhair peptide]", "values": [{"measurement": "hair follicles in hypodermis (H&E)", "setting": "nude mice", "value": "has neogenic hair follicles"}, {"measurement": "region with hairs", "setting": "nude mice; vs ddH2O", "value": "larger than that injected with ddH2O"}, {"measurement": "proliferation rate", "setting": "dermal papilla cells; treated for 48 hours", "value": "2.26±0.23"}, {"measurement": "proliferation rate", "setting": "dermal papilla cells; treated for 96 hours", "value": "3.31±0.21"}, {"measurement": "hair shaft lengths", "setting": "Hair follicles", "value": "longer than those grown with ddH2O treatment"}]}]}
